From patent publication US7001900B2, “Azabicyclic compounds for the treatment of disease” (Pfizer Inc., priority 2002, dated 2006) come the findings set out here.

The target in the experiment is T1, chimeric α7-5HT3 ion channel (UniProt P23979+P36544, M226I/T225I).
T1 construct: expressed in transfected cells
Nature of the experiment: Cell-based FLIPR assay of agonist activity on the chimeric α7-5HT3 receptor (Calcium Green fluorescence, intracellular calcium). The following applies: SH-EP1 cells expressing chimeric α7-5HT3 ion channel. An excerpt:
The cDNA encoding the N-terminal 201 amino acids from the human α7 nAChR that contain the ligand binding domain of the ion channel was fused to the cDNA encoding the pore forming region of the mouse 5HT3 receptor as described by Eisele J L, et al., Chimacric nicotinic-serotonergic receptor combines distinct ligand binding and channel specificities, Nature (1993), December 2;366(6454):479–83, and modified by Groppi, et al., WO 00/73431. The chimeric α7–5HT3 ion channel was inserted into pGS 175 and pGS 179 which contain the resistance genes for G-418 and hygromycin B, respectively. […]
To assay the activity of the α7–5HT3 ion channel, cells expressing the channel were plated into each well of either a 96 or 384 well dish (Corning #3614) and grown to confluence prior to assay. […] The activity of compounds on the chimeric α7–5HT3 ion channel was analyzed on FLIPR. […] Fluorescent emission was measured above 525 nanometers with an appropriate F-stop to maintain a maximal signal to noise ratio. Agonist activity of each compound was measured by directly adding the compound to cells expressing the chimeric α7-5HT3 ion channel and measuring the resulting increase in intracellular calcium that is caused by the agonist-induced activation of the chimeric ion channel. […]

T1 sequence (P36544+P23979 fused P36544:T225I/P36544:M226I): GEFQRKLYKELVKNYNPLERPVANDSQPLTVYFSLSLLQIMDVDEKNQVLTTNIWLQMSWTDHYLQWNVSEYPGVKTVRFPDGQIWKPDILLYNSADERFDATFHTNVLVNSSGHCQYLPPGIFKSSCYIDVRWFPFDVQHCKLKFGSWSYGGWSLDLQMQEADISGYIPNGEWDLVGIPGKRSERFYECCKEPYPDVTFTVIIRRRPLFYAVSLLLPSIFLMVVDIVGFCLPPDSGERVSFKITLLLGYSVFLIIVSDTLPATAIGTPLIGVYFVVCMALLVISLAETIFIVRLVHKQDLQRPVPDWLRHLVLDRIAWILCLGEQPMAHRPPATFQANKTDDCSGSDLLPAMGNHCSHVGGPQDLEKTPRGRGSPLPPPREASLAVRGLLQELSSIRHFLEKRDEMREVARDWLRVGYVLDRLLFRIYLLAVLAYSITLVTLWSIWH

As for `Cl.O=C(N[C@H]1CN2CCC1CC2)c1ccc2cccc(O)c2n1` [Example 8, N-[(3R)-1-azabicyclo[2.2.2]oct-3-yl]-8-hydroxyquinoline-2-carboxamide hydrochloride], the “EC50 (effective concentration needed to cause a 50% maximal increase in intracellular calcium)” value is “inactive”.
